Where two headings read alike, the source gives them in different places.
Tests used:
human MMP13 = human MMP13 (Homo sapiens (Human), UniProt P45452); test: hMMP13 assay, Protocol 2 (390 MMP FRET Substrate I, Enzo enzyme); format: biochemical; conditions: Protocol 2, human MMP13 (Enzo Life Sciences), read-out: hMMP-13 potency IC50
Method: Human MMP13 is preactivated by incubated the enzyme in the same buffer complemented with 1 mM freshly prepared p-Aminophenylmercuric acetate (AMPA) for 1 h at 37° C.

human ADAMTS6 = human ADAMTS6 (Homo sapiens (Human), UniProt Q9UKP5); test: hADAMTS-6 fluorescent based protease assay (520 MMP FRET substrate XII); format: biochemical; conditions: 37° C. for 2 h; read-out: hADAMTS-6 potency IC50
Sequence of human ADAMTS6 (Q9UKP5 other isoform, or with tags, fused parts or gaps): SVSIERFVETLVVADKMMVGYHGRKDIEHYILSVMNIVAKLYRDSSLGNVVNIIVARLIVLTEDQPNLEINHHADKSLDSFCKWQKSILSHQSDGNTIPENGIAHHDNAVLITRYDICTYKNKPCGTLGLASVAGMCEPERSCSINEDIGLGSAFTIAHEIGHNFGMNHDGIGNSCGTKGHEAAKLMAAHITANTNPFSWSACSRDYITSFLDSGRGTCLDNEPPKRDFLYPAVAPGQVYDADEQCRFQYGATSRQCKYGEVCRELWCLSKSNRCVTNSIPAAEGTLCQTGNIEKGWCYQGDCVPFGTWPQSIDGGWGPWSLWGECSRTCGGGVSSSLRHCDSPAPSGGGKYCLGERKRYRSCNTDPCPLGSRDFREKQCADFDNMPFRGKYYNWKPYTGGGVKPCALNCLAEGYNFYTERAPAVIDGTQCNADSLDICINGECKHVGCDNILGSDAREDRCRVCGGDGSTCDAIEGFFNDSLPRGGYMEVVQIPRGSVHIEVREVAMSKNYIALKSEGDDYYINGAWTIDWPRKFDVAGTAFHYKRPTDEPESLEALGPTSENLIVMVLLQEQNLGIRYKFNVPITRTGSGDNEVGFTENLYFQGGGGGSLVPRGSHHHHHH
Outline: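 ADAMTS6 (0.73 nM final) in 25 mM Tris pH 8.0, 0.05% CHAPS, 2.5 mM CaCl2 with compound dilution series (top 20 μM, 1/5 steps). Reaction started with 520 MMP FRET Substrate XII, incubated 2 h at 37 °C. Substrate cleavage read by fluorescence ex485/em530; IC50 determined.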

human ADAMTS4 = human ADAMTS4 (Homo sapiens (Human), UniProt O75173); test: hADAMTS-4 TBIS-1 cleavage assay, Protocol 2; format: biochemical
Sequence of human ADAMTS4 (O75173 213-837): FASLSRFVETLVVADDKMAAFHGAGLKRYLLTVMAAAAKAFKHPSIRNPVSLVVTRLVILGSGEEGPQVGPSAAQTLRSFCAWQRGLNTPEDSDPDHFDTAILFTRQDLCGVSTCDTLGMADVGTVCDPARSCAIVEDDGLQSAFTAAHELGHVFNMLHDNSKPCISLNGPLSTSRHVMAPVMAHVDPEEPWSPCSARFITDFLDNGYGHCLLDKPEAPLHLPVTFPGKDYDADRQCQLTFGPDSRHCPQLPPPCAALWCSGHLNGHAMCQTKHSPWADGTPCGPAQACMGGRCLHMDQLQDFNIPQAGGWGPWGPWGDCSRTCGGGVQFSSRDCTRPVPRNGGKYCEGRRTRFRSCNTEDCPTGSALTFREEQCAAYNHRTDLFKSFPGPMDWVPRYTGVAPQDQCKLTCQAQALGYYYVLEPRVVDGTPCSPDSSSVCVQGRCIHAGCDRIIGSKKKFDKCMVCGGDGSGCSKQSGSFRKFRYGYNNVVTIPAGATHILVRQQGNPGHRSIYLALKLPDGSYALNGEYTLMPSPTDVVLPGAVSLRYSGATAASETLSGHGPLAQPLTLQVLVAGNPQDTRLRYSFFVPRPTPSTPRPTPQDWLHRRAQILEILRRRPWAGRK

human MMP14 = human MMP14 (Homo sapiens (Human), UniProt P50281); test: hMMP14 assay (390 MMP FRET Substrate I); format: biochemical; conditions: human MMP14 (Biomol), read-out: hMMP-14 potency IC50
Method: The basis for the assay is the cleavage of the substrate 390 MMP FRET Substrate I (Anaspec Cat #AS-27076) by human MMP14 (Biomol, Cat #SE-259).
The reaction is initiated by adding to the assay plate 390 MMP FRET Substrate I (10 μL, 2.5 μM) in the same buffer.
Finally, the fluorescence is read on the Envision (Perkin Elmer) after an incubation of 60 min at room temperature (Excitation 485 nm, Emission 530).

human ADAMTS-5 = human ADAMTS-5 (Homo sapiens (Human), UniProt Q9UNA0); test: hADAMTS-5 TBIS-1 cleavage assay, Protocol 3; format: biochemical; conditions: 90 min at 37° C., read-out: hADAMTS-5 potency IC50
Sequence of human ADAMTS-5 (Q9UNA0 262-930): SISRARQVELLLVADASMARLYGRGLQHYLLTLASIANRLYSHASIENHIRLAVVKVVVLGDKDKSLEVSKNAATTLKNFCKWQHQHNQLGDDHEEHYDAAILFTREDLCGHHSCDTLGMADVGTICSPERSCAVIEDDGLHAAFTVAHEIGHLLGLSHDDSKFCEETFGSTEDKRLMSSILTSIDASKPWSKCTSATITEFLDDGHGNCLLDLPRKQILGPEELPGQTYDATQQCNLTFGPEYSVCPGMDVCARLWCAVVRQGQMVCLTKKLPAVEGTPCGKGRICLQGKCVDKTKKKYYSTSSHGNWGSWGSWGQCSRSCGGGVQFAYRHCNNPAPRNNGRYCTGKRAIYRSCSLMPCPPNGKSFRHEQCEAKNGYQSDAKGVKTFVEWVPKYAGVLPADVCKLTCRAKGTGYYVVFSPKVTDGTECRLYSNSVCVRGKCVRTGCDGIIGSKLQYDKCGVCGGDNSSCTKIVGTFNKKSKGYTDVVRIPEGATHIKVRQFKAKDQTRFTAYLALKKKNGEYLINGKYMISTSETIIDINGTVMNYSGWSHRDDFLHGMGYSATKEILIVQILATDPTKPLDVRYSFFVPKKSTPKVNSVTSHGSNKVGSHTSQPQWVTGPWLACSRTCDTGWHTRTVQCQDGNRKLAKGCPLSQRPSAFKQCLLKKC
Method: The reaction is initiated by adding to the assay plate TBIS-1 (10 μL, 4.5 μM, Anaspec) in the same buffer.
Finally, the fluorescence is read on the Envision (Perkin Elmer) after an incubation of 90 min at 37° C. (Excitation 485 nm, emission 530).

human TACE = human TACE (Homo sapiens (Human), UniProt P78536); test: biochemical
Sequence of human TACE (P78536 215-671): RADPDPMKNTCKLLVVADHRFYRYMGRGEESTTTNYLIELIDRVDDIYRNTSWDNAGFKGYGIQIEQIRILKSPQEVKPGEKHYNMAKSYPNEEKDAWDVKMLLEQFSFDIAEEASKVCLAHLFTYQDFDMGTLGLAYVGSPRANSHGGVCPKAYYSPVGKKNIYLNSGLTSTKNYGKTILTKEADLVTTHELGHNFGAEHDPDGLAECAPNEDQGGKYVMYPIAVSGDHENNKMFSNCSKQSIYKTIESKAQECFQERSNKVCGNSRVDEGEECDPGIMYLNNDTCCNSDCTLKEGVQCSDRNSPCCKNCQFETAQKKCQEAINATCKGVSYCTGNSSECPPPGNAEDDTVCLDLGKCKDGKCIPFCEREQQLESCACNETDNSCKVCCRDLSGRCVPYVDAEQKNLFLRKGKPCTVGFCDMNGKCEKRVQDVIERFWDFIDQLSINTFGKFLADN
Method: Finally, the fluorescence is read on the Envision (Perkin Elmer) after an incubation of 75 min at room temperature (Excitation 485 nm, Emission 530).

[1] = Protocol 2, 180 min at 37° C., read-out: ADAMTS4 potency IC50

Row | IC50 (human MMP13) | IC50 (human ADAMTS6) | IC50 (human MMP14) | IC50 (human ADAMTS-5) | IC50 (human TACE) | IC50 (human ADAMTS4; [1]) | SMILES | IC50 (human ADAMTS4)
1 | > 100 nM | 0.001 to 25 nM | > 100 nM | 25 to 50 nM | > 100 nM | > 100 nM | COc1cc(N2CCN(C(=O)CCC3(c4cccc(C)n4)NC(=O)NC3=O)C[C@@H]2C)cc(F)c1F (stereo partly drawn) [Cpd 61, 5-[3-[(3S)-4-(3,4-difluoro-5-methoxy-phenyl)-3-methyl-piperazin-1-yl]-3-oxo-propyl]-5-(6-methyl-2-pyridyl)imidazolidine-2,4-dione] | 
2 | > 100 nM | 0.001 to 25 nM | > 100 nM | 25 to 50 nM | > 100 nM | > 100 nM | COc1cc(N2CCN(C(=O)CC[C@@]3(C)NC(=O)NC3=O)C[C@@H]2C)cc(Cl)c1F [Cpd 63, (5R)-5-[3-[(3 S)-4-(3-chloro-4-fluoro-5-methoxy-phenyl)-3-methyl-piperazin-1-yl]-3-oxo-propyl]-5-methyl-imidazolidine-2,4-dione] | 
3 | > 100 nM | 25 to 50 nM | > 100 nM | > 100 nM | > 100 nM | > 100 nM | CCc1cc(N2CCN(C(=O)CC[C@@]3(C)NC(=O)NC3=O)CC2)ccc1Cl [Cpd 71, (5R)-5-[3-[4-(4-chloro-3-ethyl-phenyl)piperazin-1-yl]-3-oxo-propyl]-5-methyl-imidazolidine-2,4-dione] | 
4 | > 100 nM | 0.001 to 25 nM | > 100 nM | > 100 nM | > 100 nM | > 100 nM | COc1cc(N2CCN(C(=O)CC[C@@]3(C)NC(=O)NC3=O)CC2)cc(OC)c1F [Cpd 74, (5R)-5-[3-[4-(4-fluoro-3,5-dimethoxy-phenyl)piperazin-1-yl]-3-oxo-propyl]-5-methyl-imidazolidine-2,4-dione] | 
5 | > 100 nM | 0.001 to 25 nM | > 100 nM | 50 to 100 nM | > 100 nM | > 100 nM | CCc1cc(N2CCN(C(=O)CC[C@@]3(C)NC(=O)NC3=O)C[C@@H]2C)ccc1Cl [Cpd 75, (5R)-5-[3-[(3 S)-4-(4-chloro-3-ethyl-phenyl)-3-methyl-piperazin-1-yl]-3-oxo-propyl]-5-methyl-imidazolidine-2,4-dione] | 
6 | > 100 nM | 0.001 to 25 nM | > 100 nM | > 100 nM | > 100 nM | > 100 nM | CCOc1cc(N2CCN(C(=O)CC[C@@]3(C)NC(=O)NC3=O)CC2)cc(OC)c1Cl [Cpd 79, (5R)-5-[3-[4-(4-chloro-3-ethoxy-5-methoxy-phenyl)piperazin-1-yl]-3-oxo-propyl]-5-methyl-imidazolidine-2,4-dione] | 
7 | > 100 nM | 0.001 to 25 nM | > 100 nM | > 100 nM | > 100 nM | > 100 nM | CCOc1cc(N2CCN(C(=O)CC[C@@]3(C)NC(=O)NC3=O)C[C@@H]2C)cc(OC)c1Cl [Cpd 80, (5R)-5-[3-[(3 S)-4-(4-chloro-3-ethoxy-5-methoxy-phenyl)-3-methyl-piperazin-1-yl]-3-oxo-propyl]-5-methyl-imidazolidine-2,4-dione] | 
8 | > 100 nM | 0.001 to 25 nM | > 100 nM | > 100 nM | > 100 nM | > 100 nM | COc1cc(N2CCN(C(=O)CC[C@@]3(C)NC(=O)NC3=O)C[C@@H]2C)cc(OC)c1F [Cpd 89, (5R)-5-[3-[(3 S)-4-(4-fluoro-3,5-dimethoxy-phenyl)-3-methyl-piperazin-1-yl]-3-oxo-propyl]-5-methyl-imidazolidine-2,4-dione] | 
9 | > 100 nM | 0.001 to 25 nM | > 100 nM | > 100 nM | > 100 nM | > 100 nM | COc1cc(N2CCN(C(=O)CC[C@@]3(C)NC(=O)NC3=O)C[C@@H]2C)ccc1F [Cpd 93, (5R)-5-[3-[(3 S)-4-(4-fluoro-3-methoxy-phenyl)-3-methyl-piperazin-1-yl]-3-oxo-propyl]-5-methyl-imidazolidine-2,4-dione] | 
10 | > 100 nM | 0.001 to 25 nM | > 100 nM | > 100 nM | > 100 nM | > 100 nM | COc1cc(Cl)cc(N2CCN(C(=O)CC[C@@]3(C)NC(=O)NC3=O)C[C@@H]2C)c1 [Cpd 96, (5R)-5-[3-[(3 S)-4-(3-chloro-5-methoxy-phenyl)-3-methyl-piperazin-1-yl]-3-oxo-propyl]-5-methyl-imidazolidine-2,4-dione] | 
11 | > 100 nM | 0.001 to 25 nM | > 100 nM | > 100 nM | > 100 nM | > 100 nM | COc1cc(N2CCN(C(=O)CC[C@@]3(C)NC(=O)NC3=O)C[C@@H]2C)cc(N(C)C)c1Cl [Cpd 99, (5R)-5-[3-[(3S)-4-[4-chloro-3-(dimethylamino)-5-methoxy-phenyl]-3-methyl-piperazin-1-yl]-3-oxo-propyl]-5-methyl-imidazolidine-2,4-dione] | 

Row | SMILES | IC50 (human MMP13) | IC50 (human ADAMTS6) | IC50 (human MMP14) | IC50 (human ADAMTS-5) | IC50 (human TACE) | IC50 (human ADAMTS4; [1]) | IC50 (human ADAMTS4)
12 | CC[C@]1(C[C@H](C)C(=O)N2CCN(c3cc(F)c(F)c(OC)c3)CC2)NC(=O)NC1=O [Cpd 57, (5R)-5-[(2S)-3-[4-(3,4-difluoro-5-methoxy-phenyl)piperazin-1-yl]-2-methyl-3-oxo-propyl]-5-ethyl-imidazolidine-2,4-dione] | > 100 nM | 0.001 to 25 nM | > 100 nM | 25 to 50 nM | > 100 nM |  | 50 to 100 nM
13 | COc1cc(N2CCN(C(=O)CC[C@@]3(C4CC4)NC(=O)NC3=O)C[C@@H]2C)cc(Cl)c1F [Cpd 62, (5S)-5-[3-[(3S)-4-(3-chloro-4-fluoro-5-methoxy-phenyl)-3-methyl-piperazin-1-yl]-3-oxo-propyl]-5-cyclopropyl-imidazolidine-2,4-dione] | > 100 nM | 0.001 to 25 nM | > 100 nM | 0.001 to 25 nM | > 100 nM |  | 50 to 100 nM
14 | COc1cc(N2CCN(C(=O)CC[C@@]3(C4CC4)NC(=O)NC3=O)C[C@@H]2C)cc(F)c1Cl [Cpd 65, (5S)-5-[3-[(3S)-4-(4-chloro-3-fluoro-5-methoxy-phenyl)-3-methyl-piperazin-1-yl]-3-oxo-propyl]-5-cyclopropyl-imidazolidine-2,4-dione] | > 100 nM | 0.001 to 25 nM | > 100 nM | 0.001 to 25 nM | > 100 nM |  | 50 to 100 nM
15 | COc1cc(N2CCN(C(=O)CC[C@@]3(C)NC(=O)NC3=O)C[C@@H]2C)cc(Cl)c1Cl [Cpd 90, (5R)-5-[3-[(3 S)-4-(3,4-dichloro-5-methoxy-phenyl)-3-methyl-piperazin-1-yl]-3-oxo-propyl]-5-methyl-imidazolidine-2,4-dione] | > 100 nM | 0.001 to 25 nM | > 100 nM | 0.001 to 25 nM | > 100 nM |  | 25 to 50 nM
16 | COc1cc(N2CCN(C(=O)CC[C@@]3(C)NC(=O)NC3=O)C[C@@H]2C)cc(C)c1Cl [Cpd 105, (5R)-5-[3-[(3S)-4-(4-chloro-3-methoxy-5-methyl-phenyl)-3-methyl-piperazin-1-yl]-3-oxo-propyl]-5-methyl-imidazolidine-2,4-dione] | > 100 nM | 0.001 to 25 nM | > 100 nM | > 100 nM | > 100 nM |  | 50 to 100 nM
